Experimental data published in US9102591B2, “Benzamides” (H. Lundbeck A/S, priority 2012, dated 2015).

What follows are molecules tested against P2X7 receptor (Homo sapiens (Human), UniProt Q99572) (assay: P2X7 FLIPR assay (BzATP-stimulated calcium fluorescence, antagonist IC50)). Details: not given.
Sequence of P2X7 receptor (Q99572 whole entry): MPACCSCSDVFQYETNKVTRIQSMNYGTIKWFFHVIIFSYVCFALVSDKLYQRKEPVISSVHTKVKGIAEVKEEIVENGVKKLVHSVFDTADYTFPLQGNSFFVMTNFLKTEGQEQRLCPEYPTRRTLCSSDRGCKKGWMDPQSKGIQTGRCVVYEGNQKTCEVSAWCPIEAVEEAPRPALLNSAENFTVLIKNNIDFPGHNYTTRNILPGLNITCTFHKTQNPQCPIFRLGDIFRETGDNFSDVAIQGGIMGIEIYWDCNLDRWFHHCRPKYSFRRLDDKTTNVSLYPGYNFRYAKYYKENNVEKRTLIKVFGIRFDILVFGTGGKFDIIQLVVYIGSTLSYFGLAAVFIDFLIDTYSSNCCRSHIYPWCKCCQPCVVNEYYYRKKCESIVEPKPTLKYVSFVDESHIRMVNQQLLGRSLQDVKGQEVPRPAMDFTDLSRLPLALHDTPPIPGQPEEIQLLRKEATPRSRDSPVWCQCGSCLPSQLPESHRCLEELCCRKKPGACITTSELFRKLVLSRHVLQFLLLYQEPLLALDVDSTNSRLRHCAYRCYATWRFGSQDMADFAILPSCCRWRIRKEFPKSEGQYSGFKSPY
Type: cell-based
Experimental: This example illustrates representative assays for use in evaluating the test compounds for antagonist activity. Compounds of the present invention were tested in vitro for their ability to act as antagonists to the P2X7receptor. […]
Cells were plated to cell density of approximately 15,000 cells/well in 384-well assay plates (50 μl/well) with 1.5% low serum media (DMEM, 1.5% FBS, 1% L-glut (2 mM), 10 mM HUES, 1% P/S). Cells were plated 24 hours prior to assay. Cells expressing human, rat or mouse P2X7 receptor were assayed in the following manner.
Fluo-4 NW dye mix (Molecular Probes, Inc., Eugene, Oreg., USA) was prepared in buffer (see manufacturer's instructions). Cell plates were removed from the 37° C. incubator, the media discarded and then 30 μL of dye was added to each well. Plates were placed in the 37° C., non-CO2 incubator for 30 minutes and then room temperature for 30 minutes.
Compound mixtures (A) were added to assay plates containing cells and placed at room temperature for 30 minutes, then BzATP (B) was added. Fluorescence was read using the Tetra FLIPR® (Molecular Devices, Inc., Sunnyvale, Calif., USA) and IC50 values were calculated by standard methods to determine antagonist activity.
For `COc1cccc(C(=O)NCC(CC2CC2)c2ccc(C(F)(F)F)nc2)c1Cl` (single isomer, unassigned; (+)) [(+)2-chloro-N-[3-cyclopropyl-2-[6-(trifluoromethyl)-3-pyridy] [(+)2-chloro-N-[3-cyclopropyl-2-[6-(trifluoromethyl)-3-pyridyl]propyl]-3-methoxy-benzamide], the IC50 was 12 nM. `O=C(NCC1(c2ccc(Cl)cc2)CCOCC1)c1cccc(Cl)c1F` [3-Chloro-N-[4-(4-chloro-phenyl)-tetrahydro-pyran-4-ylmethyl]-2-fluoro-benzamide] was tested, and the IC50 was 890 nM. `Cc1ccc(C(CNC(=O)c2cccc(C)c2C)CC(C)C)cn1` (stereo not drawn) [2,3-Dimethyl-N-[4-methyl-2-(6-methyl-pyridin-3-yl)-pentyl]-benzamide] was tested, and the IC50 was 4.4 nM. Work on `Cc1ncc(C(CNC(=O)c2cccc(F)c2Cl)C2CCOCC2)cn1` (stereo not drawn) [2-chloro-3-fluoro-N-[2-(2-methylpyrimidin-5-yl)-2-tetrahydropyran-4-yl-ethyl]benzamide] yielded an IC50 of 210 nM. `Cc1ccccc1C(=O)NCC1(c2cccnc2)CCCC1` [2-Methyl-N-(1-pyridin-3-yl-cyclopentylmethyl)-benzamide] was tested, and the IC50 was 3600 nM. `O=C(NCC1(c2ccc(Cl)cc2)CCOCC1)c1cc(F)cc(F)c1F` [N-[4-(4-Chloro-phenyl)-tetrahydro-pyran-4-ylmethyl]-2,3,5-trifluoro-benzamide] was tested, and the IC50 was 3600 nM. In the case of `O=C(NCC(c1cnc(C(F)(F)F)nc1)C1CCOCC1)c1cccc(F)c1Cl` (single isomer, unassigned; (+)) [(+)2-chloro-3-fluoro-N-[2-tetrahydropyran-4-yl-2-[2-(trifluo] [(+)2-chloro-3-fluoro-N-[2-tetrahydropyran-4-yl-2-[2-(trifluoromethyl)pyrimidin-5-yl]ethyl]benzamide], the IC50 is reported as 32 nM. Molecule `O=C(NCC(CC1CC1)c1ccc(C(F)(F)F)nc1)c1cccc(Cl)c1F` (stereo not drawn) [3-chloro-N-(3-cyclopropyl-2-(6-(trifluoromethyl)pyridin-3-yl)propyl)-2-fluorobenzamide] has an IC50 of 660 nM. Work on `CS(=O)(=O)c1ccc(C(=O)NCC2(c3ccc(C(F)(F)F)nc3)CCC(F)(F)CC2)c(Cl)c1` [2-chloro-N-((4,4-difluoro-1-(6-(trifluoromethyl)pyridin-3-yl)cyclohexyl)methyl)-4-(methylsulfonyl)benzamide] yielded an IC50 of 1800 nM. In the case of `O=C(NCC(c1ccc(F)cc1)c1ccc(C(F)(F)F)nc1)c1c(F)cccc1Cl` (single isomer, unassigned; (+)) [(+)2-chloro-6-fluoro-N-[2-(4-fluorophenyl)-2-[6-(trifluorome] [(+)2-chloro-6-fluoro-N-[2-(4-fluorophenyl)-2-[6-(trifluoromethyl)-3-pyridyl]ethyl]benzamide], the IC50 is reported as 15 nM. `Cc1cccc(C(=O)NCC2(c3ccc(Cl)cc3)CCOCC2)c1C` [N-[4-(4-Chloro-phenyl)-tetrahydro-pyran-4-ylmethyl]-2,3-dimethyl-benzamide] was tested, and the IC50 was 170 nM. Work on `O=C(NCC(c1ccc(Cl)cc1)C1CCOCC1)c1c(F)cccc1Cl` (stereo not drawn) [2-chloro-N-[2-(4-chlorophenyl)-2-tetrahydropyran-4-yl-ethyl]-6-fluoro-benzamide] yielded an IC50 of 30 nM. For `O=C(NCC(c1cnc(C(F)(F)F)nc1)C1CCC(F)(F)CC1)c1cccc(F)c1Cl` (single isomer, unassigned; (-)) [(−)2-chloro-N-[2-(4,4-difluorocyclohexyl)-2-[2-(trifluoromet] [(−)2-chloro-N-[2-(4,4-difluorocyclohexyl)-2-[2-(trifluoromethyl)pyrimidin-5-yl]ethyl]-3-fluoro-benzamide], the IC50 was 44 nM. `O=C(NCC(c1cnc(C(F)(F)F)nc1)C1CCOCC1)c1cccc(F)c1Cl` (single isomer, unassigned; (-)) [(−)2-chloro-3-fluoro-N-[2-tetrahydropyran-4-yl-2-[2-(trifluo] [(−)2-chloro-3-fluoro-N-[2-tetrahydropyran-4-yl-2-[2-(trifluoromethyl)pyrimidin-5-yl]ethyl]benzamide] gave an IC50 of 64 nM. With `COc1ccc(C2(CNC(=O)c3ccccc3C)CCCC2)cc1` [N-[1-(4-Methoxy-phenyl)-cyclopentylmethyl]-2-methyl-benzamide] the IC50 was 1400 nM. `O=C(NCC(c1cnc(C(F)(F)F)nc1)C1CCOCC1)c1c(F)cccc1Cl` (single isomer, unassigned; (+)) [(+)2-chloro-6-fluoro-N-[2-tetrahydropyran-4-yl-2-[2-(trifluo] [(+)2-chloro-6-fluoro-N-[2-tetrahydropyran-4-yl-2-[2-(trifluoromethyl)pyrimidin-5-yl]ethyl]benzamide] was tested, and the IC50 was 56 nM. `O=C(NC[C@H](c1cnc(C(F)(F)F)nc1)C1CCOCC1)c1cccc(Cl)c1Cl` (single isomer, unassigned) [(+)2,3-dichloro-N-[2-tetrahydropyran-4-yl-2-[2-trifluoromethyl)pyrimidin-5-yl]ethyl]benzamide] was tested, and the IC50 was 4.1 nM. For `COc1cccc(C(=O)NCC(CC2CC2)c2cnc(C(F)(F)F)nc2)c1Cl` (single isomer, unassigned; (-)) [(−)2-chloro-N-[3-cyclopropyl-2-[2-(trifluoromethyl)pyrimidin] [(−)2-chloro-N-[3-cyclopropyl-2-[2-(trifluoromethyl)pyrimidin-5-yl]propyl]-3-methoxy-benzamide], the IC50 was 3.4 nM. With `O=C(NCC1(c2ccc(F)nc2)CCC(F)(F)CC1)c1cc(Cl)ccc1Cl` [2,5-dichloro-N-((4,4-difluoro-1-(6-fluoropyridin-3-yl)cyclohexyl)methyl)benzamide] the IC50 was 2.3 nM. For `Cc1ccc(C2(CNC(=O)c3cccc(Cl)c3Cl)CCC(F)(F)CC2)cn1`, the IC50 was 7.3 nM. Work on `O=C(NCC1(c2ccc(Cl)cc2)CCOCC1)c1cc(F)ccc1F` [N-[4-(4-Chloro-phenyl)-tetrahydro-pyran-4-ylmethyl]-2,5-difluoro-benzamide] yielded an IC50 of 3000 nM. `CC(CNC(=O)c1cccc(F)c1Cl)(CC1CC1)c1cnc(C(F)(F)F)nc1` (single isomer, unassigned; (+)) [(+)2-chloro-N-[3-cyclopropyl-2-methyl-2-[2-(trifluoromethyl)] [(+)2-chloro-N-[3-cyclopropyl-2-methyl-2-[2-(trifluoromethyl)pyrimidin-5-yl]propyl]-3-fluoro-benzamide] was tested, and the IC50 was 360 nM. For `Cc1ncc(C2(C(C)NC(=O)c3ccccc3Cl)CCC(F)(F)CC2)cn1` (stereo not drawn) [2-chloro-N-[1-[4,4-difluoro-1-(2-methylpyrimidin-5-yl)cyclohexyl]ethyl]benzamide], the IC50 was 1600 nM. `Cc1ncc(C2(CNC(=O)c3ccccc3Cl)CCC(F)(F)CC2)cn1` [2-chloro-N-[[4,4-difluoro-1-(2-methylpyrimidin-5-yl)cyclohexyl]methyl]benzamide] was tested, and the IC50 was 120 nM. In the case of `O=C(NCC(CC1CC1)c1ccc(C(F)(F)F)nc1)c1c(F)cccc1F` (single isomer, unassigned; (-)) [(−)N-[3-cyclopropyl-2-[6-(trifluoromethyl)-3-pyridyl]propyl]], the IC50 is reported as 130 nM. `O=C(NCC(CC1(C(F)(F)F)CC1)c1ccc(C(F)(F)F)nc1)c1cccc(Cl)c1Cl` (stereo not drawn) [2,3-dichloro-N-[3-[1-(trifluoromethyl)cyclopropyl]-2-[6-(tri] [2,3-dichloro-N-[3-[1-(trifluoromethyl)cyclopropyl]-2-[6-(trifluoromethyl)-3-pyridyl]propyl]benzamide] showed an IC50 of 19 nM. For `CC(CNC(=O)c1ccccc1Cl)(CC1CC1)c1cnc(C(F)(F)F)nc1` (single isomer, unassigned; (-)) [(−)2-chloro-N-[3-cyclopropyl-2-methyl-2-[2-(trifluoromethyl)] [(−)2-chloro-N-[3-cyclopropyl-2-methyl-2-[2-(trifluoromethyl)pyrimidin-5-yl]propyl]benzamide], the IC50 was 17 nM. `O=C(NCC1(c2cnc(C(F)(F)F)nc2)CCOCC1)c1c(F)cccc1Cl` [2-chloro-6-fluoro-N-[[4-[2-(trifluoromethyl)pyrimidin-5-yl]tetrahydropyran-4-yl]methyl]benzamide] was tested, and the IC50 was 1600 nM. Molecule `O=C(NCC(CC1CC1)c1cnc(C(F)F)nc1)c1cccc(Cl)c1Cl` (single isomer, unassigned; (-)) [(−)2,3-dichloro-N-[3-cyclopropyl-2-[2-(difluoromethyl)pyrimi] [(−)2,3-dichloro-N-[3-cyclopropyl-2-[2-(difluoromethyl)pyrimidin-5-yl]propyl]benzamide] has an IC50 of 1.9 nM. `O=C(NCC(c1cnc(C(F)(F)F)nc1)C1CCC(F)(F)CC1)c1cccc(F)c1Cl` (single isomer, unassigned; (+)) [(+)2-chloro-N-[2-(4,4-difluorocyclohexyl)-2-[2-(trifluoromet] [(+)2-chloro-N-[2-(4,4-difluorocyclohexyl)-2-[2-(trifluoromethyl)pyrimidin-5-yl]ethyl]-3-fluoro-benzamide] was tested, and the IC50 was 45 nM. `Cc1c(Br)cccc1C(=O)NCC1(c2ccc(C(F)(F)F)nc2)CCC(F)(F)CC1` [3-bromo-N-((4,4-difluoro-1-(6-(trifluoromethyl)pyridin-3-yl)cyclohexyl)methyl)-2-methylbenzamide] gave an IC50 of 0.71 nM.

Same assay, conditions: listed as (+)2-chloro-N-[3-cyclopropyl-2-[6-(trifluoromethyl)-3-pyridyl]propyl]benzamide
Molecule `O=C(NCC(CC1CC1)c1ccc(C(F)(F)F)nc1)c1ccccc1Cl` (single isomer, unassigned; (+)) [Example 4a, (+)-2-Chloro-N-[3-cyclopropyl-2-[6-(tiifluoromethyl)-3-pyridyl]propyl]benzamide] has an IC50 of 63 nM.

Same assay, conditions: listed as (+)N-[3-cyclopropyl-2-[6-(trifluoromethyl)-3-pyridyl]propyl]-2-methoxy-benzamide
`COc1ccccc1C(=O)NCC(CC1CC1)c1ccc(C(F)(F)F)nc1` (single isomer, unassigned) [Example 4p, (+)—N-(3-cyclopropyl-2-(6-(trifluoromethyl)pyridin-3-yl)propyl)-2-methoxybenzamide] gave an IC50 of 990 nM.
